Experimental findings from patent US20090036422A1 (priority 2007, published 2009) are described below.

Structures are written as SMILES. Counter-ions that a name gives are not always drawn.

This assay concerns the target T1, human orexin-2 (hOX2) receptor (Homo sapiens, UniProt O43614).
T1 construct: expressed in transfected cells
T1 sequence (O43614 1-444): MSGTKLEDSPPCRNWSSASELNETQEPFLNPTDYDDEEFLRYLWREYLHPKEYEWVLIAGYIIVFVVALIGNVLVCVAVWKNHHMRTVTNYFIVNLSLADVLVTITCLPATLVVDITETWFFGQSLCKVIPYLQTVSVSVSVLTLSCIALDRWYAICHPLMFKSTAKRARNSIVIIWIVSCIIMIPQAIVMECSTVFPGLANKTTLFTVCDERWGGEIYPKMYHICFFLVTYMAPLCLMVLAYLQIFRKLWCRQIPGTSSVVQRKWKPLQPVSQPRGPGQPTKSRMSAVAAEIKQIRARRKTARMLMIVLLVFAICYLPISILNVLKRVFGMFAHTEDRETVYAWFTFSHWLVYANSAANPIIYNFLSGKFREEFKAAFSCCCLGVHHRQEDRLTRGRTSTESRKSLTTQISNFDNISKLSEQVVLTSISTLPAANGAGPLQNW
Nature of the assay: Intracellular Ca2+ mobilization assay (FLIPR), CHO(dHFr-) cells expressing hOX2, orexin-A at EC80 as agonist. In kind it is cell-based. Particulars: Kb=IC50/(1+[A]/EC50); CHO(dHFr-)-OX2R cells, antagonist applied 25 min before orexin-A EC80. The method, then: Intracellular Ca^2+ Mobilization Assay
The Chinese Hamster Ovary (dHFr−) mutant cell line stably expressing human orexin-1 (hOX1) or human orexin-2 (hOX2) receptors were maintained in Dulbecco's Modified Eagle Medium (1×) with GlutaMax™ 1, 4500 mg/L D-Glucose and Sodium Pyruvate (Catalog No. 31966-021, Invitrogen, Carlsbad, Calif.), 5% dialyzed fetal calf serum (Catalog No. 26400-044), 100 μg/ml penicillin and 100 μg/ml streptomycin. The cells were seeded at 5×10^4 cells/well in the poly-D-lysine treated, 96-well, black/clear-bottomed plates (Catalog No. BD356640, BD Biosciences, Palo Alto, Calif.). 24 h later, the cells were loaded for 1 h at 37° C. with 4 μM Flou-4 acetoxymethyl ester (Catalog No. F-14202, Molecular Probes, Eugene, Oreg.) in FLIPR buffer (1×HBSS, 20 mM HEPES, 2.5 mM Probenecid). Hanks' Balanced Salt Solution (HBSS) (10×) (catalog No. 14065-049) and HEPES (1M) (catalog No. 15630-056) were purchased from Invitrogen, Carlsbad, Calif. Probenecid (250 mM) (catalog No. P8761) was from Sigma, Buchs, Switzerland. The cells were washed five times with FLIPR buffer to remove excess dye and intracellular calcium mobilization, [Ca^2+]i were measured using a Fluorometric Imaging Plate Reader (FLIPR-96, Molecular Devices, Menlo Park, Calif.) as described previously (Malherbe et al., Mol. Pharmacol., 64, 823-832, 2003). Orexin A (catalog No. 1455, Toris Cookson Ltd, Bristol, UK) was used as agonist. Orexin A (50 mM stock solution in DMSO) was diluted in FLIPR buffer +0.1% BSA. The EC50 and EC80 values of orexin-A were measured daily from standard agonist concentration-response curves in CHO(dHFr−) —OX1R and —OX2R cell lines. All compounds were dissolved in 100% DMSO. Inhibition curves were determined by addition of 11 concentrations (0.0001-10 μM) of inhibitory compounds and using EC80 value of orexin-A as agonist (a concentration which gave 80% of max agonist response, determined daily). The antagonists were applied 25 min (incubation at 37° C.) before the application of the agonist. Responses were measured as peak increase in fluorescence minus basal, normalized to the maximal stimulatory effect induced by EC80 value of orexin-A or orexin-B. Inhibition curves were fitted according to the Hill equation: y=100/(1+(x/IC50)^nH), where nH=slope factor using Excel-fit 4 software (Microsoft).
Kb values were calculated according to the following equation Kb=IC50/(1+[A]/EC50) where A is the concentration of agonist added which is very close to agonist EC80 value, and IC50 and EC50 values were derived from the antagonist inhibition and orexin-A or B agonist curves, respectively.
One may read the Kb as the affinity of an antagonist, worked out from how it opposes an agonist. A lower Kb goes with a more potent antagonist. As to `Cc1ccc(N(CCc2ccc(C(F)(F)F)cc2)C(=O)[C@@H](O)c2ccccc2)cc1C` [Example 159, (S)—N-(3,4-Dimethyl-phenyl)-2-hydroxy-2-phenyl-N-[2-(4-trifluoromethyl-phenyl)-ethyl]-acetamide], the Kb amounted to 0.0542 µM.

Regarding `Cc1ccc(N(CCc2c(F)cc(C(F)(F)F)c(F)c2F)C(=O)/C(=N/O)c2ccccc2)cc1C` [Example 211, N-(3,4-Dimethyl-phenyl)-2-[hydroxyimino]-2-phenyl-N-[2-(2,3,6-trifluoro-4-trifluoromethyl-phenyl)-ethyl]-acetamide], the Kb stood at 0.0222 µM.

Take `Cc1ccc(CCN(C(=O)C(N)c2ccccc2)c2ccc(F)c(C)c2)cc1` (centres unmarked) [Example 88, 2-Amino-N-(4-fluoro-3-methyl-phenyl)-2-phenyl-N-(2-p-tolyl-ethyl)-acetamide]: the Kb came to 0.0819 µM.

The compound `Cc1ccc(N(CCc2cc(F)cc(Cl)c2)C(=O)[C@@H](N)c2ccccc2)cc1C` [Example 209, (S)-2-Amino-N-[2-(3-chloro-5-fluoro-phenyl)-ethyl]-N-(3,4-dimethyl-phenyl)-2-phenyl-acetamide hydrochloride] registered a Kb of 0.0486 µM.

For the compound `Cc1ccc(N(CCc2cc(F)cc(C(F)(F)F)c2)C(=O)[C@@H](N)c2ccccc2)cc1C` [Example 201, (S)-2-Amino-N-(3,4-dimethyl-phenyl)-N-[2-(3-fluoro-5-trifluoromethyl-phenyl)-ethyl]-2-phenyl-acetamide hydrochloride], the Kb is 0.247 µM.

Consider `N[C@H](C(=O)N(CCc1ccc(C(F)(F)F)cc1)c1ccc(OC(F)F)cc1)c1ccccc1` [Example 148, (S)-2-Amino-N-(4-difluoromethoxy-phenyl)-2-phenyl-N-[2-(4-trifluoromethyl-phenyl)-ethyl]-acetamide], for which the Kb stood at 0.0217 µM.

`COc1ccc(N(CCc2ccc(C(F)(F)F)cc2)C(=O)[C@@H](NC2COC2)c2ccccc2)cc1OC` [Example 72, (S)—N-(3,4-Dimethoxy-phenyl)-2-(oxetan-3-ylamino)-2-phenyl-N-[2-(4-trifluoromethyl-phenyl)-ethyl]-acetamide] had a Kb of 0.0023 µM.

As to `COc1ccc(N(CCc2ccc(C(F)(F)F)cc2)C(=O)[C@H](N)c2ccccc2)cc1OC` (single isomer, unassigned) [Example 174], the Kb is 0.046 µM.

On to `COc1ccc(CCN(C(=O)C(N)c2ccccc2)c2ccc(OC(F)(F)F)cc2)cc1OC` (centres unmarked) [Example 78, 2-Amino-N-[2-(3,4-dimethoxy-phenyl)-ethyl]-2-phenyl-N-(4-trifluoromethoxy-phenyl)-acetamide], for which the Kb is 0.0444 µM.

As for `Cc1ccc(N(CCc2ccc(F)c(F)c2)C(=O)C(N)c2ccsc2)cc1C` (centres unmarked) [Example 216, 2-Amino-N-[2-(3,4-difluoro-phenyl)-ethyl]-N-(3,4-dimethyl-phenyl)-2-thiophen-3-yl-acetamide hydrochloride], the Kb is 0.0302 µM.

The compound `CC(=O)NCCNC(C(=O)N(CCc1ccc(C)cc1)c1ccc(C)c(C)c1)c1ccccc1` (centres unmarked) [Example 126, 2-(2-Acetylamino-ethylamino)-N-(3,4-dimethyl-phenyl)-2-phenyl-N-(2-p-tolyl-ethyl)-acetamide] yielded a Kb of 0.0086 µM.

Consider `Cc1ccc(N(CCc2ccc(C(F)(F)F)cc2)C(=O)[C@@H](N)c2ccc(F)cc2)cc1C` [Example 154, (S)-2-Amino-N-(3,4-dimethyl-phenyl)-2-(4-fluoro-phenyl)-N-[2-(4-trifluoromethyl-phenyl)-ethyl]-acetamide], for which the antagonist equilibrium constant (Kb) was determined as 0.051 µM.

The compound `Cc1ccc(N(CCc2ccc(Cl)cc2Cl)C(=O)[C@@H](N)c2ccccc2)cc1C` [Example 205, (S)-2-Amino-N-[2-(2,4-dichloro-phenyl)-ethyl]-N-(3,4-dimethyl-phenyl)-2-phenyl-acetamide hydrochloride] gave a Kb of 0.0829 µM.

`Cc1ccc(CCN(C(=O)[C@@H](NC(=O)[C@@H](N)c2ccccc2)c2ccccc2)c2ccc(C)c(C)c2)cc1` [Example 249, (S)-2-((S)-2-Amino-2-phenyl-acetylamino)-N-(3,4-dimethyl-phenyl)-2-phenyl-N-(2-p-tolyl-ethyl)-acetamide] registered a Kb of 0.082 µM.

Compound `COc1ccccc1CC(=O)N(CCc1ccc(C(F)(F)F)cc1)c1ccc(OC)c(OC)c1` [Example 14, N-(3,4-dimethoxyphenyl)-2-(2-methoxyphenyl)-N-{2-[4-(trifluoromethyl)phenyl]ethyl}acetamide] returned a Kb of 0.0342 µM.

`CCOc1ccc(N(CCc2ccc(C(F)(F)F)cc2)C(=O)[C@@H](N)c2ccc(F)cc2)cc1Cl` [Example 165, (S)-2-Amino-N-(3-chloro-4-ethoxy-phenyl)-2-(4-fluoro-phenyl)-N-[2-(4-trifluoromethyl-phenyl)-ethyl]-acetamide]: the Kb came to 0.0673 µM.

`Cc1ccc(CCN(C(=O)C(NC[C@@H]2CCCO2)c2ccccc2)c2ccc(C)c(C)c2)cc1` (stereo partly drawn) [Example 134, N-(3,4-Dimethyl-phenyl)-2-phenyl-2-{[(S)-1-(tetrahydro-furan-2-yl)methyl]-amino}-N-(2-p-tolyl-ethyl)-acetamide] registered an antagonist dissociation constant (Kb) of 0.0161 µM.

`Cc1ccc(CCN(C(=O)C(NCC2OCCO2)c2ccccc2)c2ccc(C)c(C)c2)cc1` (centres unmarked) [Example 133, N-(3,4-Dimethyl-phenyl)-2-[([1,3]dioxolan-2-ylmethyl)-amino]-2-phenyl-N-(2-p-tolyl-ethyl)-acetamide] registered a Kb of 0.007 µM.

Turning to `Cc1ccc(N(CCc2ccc(Cl)cc2)C(=O)C(N)c2ccccc2)cc1C` (centres unmarked) [Example 93, 2-Amino-N-[2-(4-chloro-phenyl)-ethyl]-N-(3,4-dimethyl-phenyl)-2-phenyl-acetamide], the Kb was 0.0888 µM.

On to `Cc1ccc(N(CCc2cccc(F)c2)C(=O)[C@@H](N)c2ccccc2)cc1C` [Example 182, (S)-2-Amino-N-(3,4-dimethyl-phenyl)-N-[2-(3-fluoro-phenyl)-ethyl]-2-phenyl-acetamide hydrochloride], for which the Kb turned out to be 0.0283 µM.

`COc1ccc(N(CCc2ccc(C(F)(F)F)cc2)C(=O)C(O)c2ccccc2F)cc1OC` (centres unmarked) [Example 31, N-(3,4-dimethoxyphenyl)-2-(2-fluorophenyl)-2-hydroxy-N-{2-[4-(trifluoromethyl)phenyl]ethyl}acetamide] came in with an antagonist dissociation constant (Kb) of 0.0336 µM.

`COCC(C)NC(C(=O)N(CCc1ccc(C)cc1)c1ccc(C)c(C)c1)c1ccccc1` (centres unmarked) [Example 120, N-(3,4-Dimethyl-phenyl)-2-(2-methoxy-1-methyl-ethylamino)-2-phenyl-N-(2-p-tolyl-ethyl)-acetamide] displayed a Kb of 0.0446 µM.

As to `Cc1ccc(N(CCc2ccc(C(F)(F)F)cc2)C(=O)C(N)c2ccccc2)cc1C` (centres unmarked) [Example 84, 2-Amino-N-(3,4-dimethyl-phenyl)-2-phenyl-N-[2-(4-trifluoromethyl-phenyl)-ethyl]-acetamide], the Kb was 0.0666 µM.

For the compound `Cc1cccc(CCN(C(=O)[C@@H](N)c2ccccc2)c2ccc(C)c(C)c2)c1` [Example 181, (S)-2-Amino-N-(3,4-dimethyl-phenyl)-2-phenyl-N-(2-m-tolyl-ethyl)-acetamide hydrochloride], the Kb amounted to 0.0708 µM.

Turning to `Cc1ccc(N(CCc2cccc(O)c2)C(=O)[C@@H](N)c2ccccc2)cc1C` [Example 206, (S)-2-Amino-N-(3,4-dimethyl-phenyl)-N-[2-(3-hydroxy-phenyl)-ethyl]-2-phenyl-acetamide hydrochloride], the Kb stood at 0.0469 µM.

With `COc1ccc(N(CCc2ccc(C(F)(F)F)cc2)C(=O)C(N)c2cccc(Cl)c2)cc1OC` (centres unmarked) [Example 63, 2-Amino-2-(3-chloro-phenyl)-N-(3,4-dimethoxy-phenyl)-N-[2-(4-trifluoromethyl-phenyl)-ethyl]-acetamide], the Kb was 0.0664 µM.
